From patent publication US20260256792A1, “TREATMENT OF CHRONIC SPONTANEOUS URTICARIA BY ADMINISTERING (R)-2-[3-[4-AMINO-3-(2-FLUORO-4-PHENOXY-PHENYL)PYRAZOLO[3,4-D]PYRIMIDIN-1-YL]PIPERIDINE-1-CARBONYL]-4-METHYL-4-[4-(OXETAN-3-YL)PIPERAZIN-1-YL]PENT-2-ENENITRILE” (priority 2023, published 2026)

System: angioedema in CSU patients
Assay: Phase 2 CSU study: angioedema activity score over 7 days (AAS7)
Type: in vivo, human
Parameters: AAS7, Median / AAS7 Change from baseline, Median: scale not given here
Details: Omalizumab-Naïve Population
Source text: The study comprises a 12 week, randomized, double-blind, placebo-controlled, multi-center, dose-ranging efficacy and safety phase, followed by a 40 week open label extension (OLE) phase (see FIG. 1). The study consists of three phases and an optional OLE phase. […] The weekly angioedema activity score (AAS7) was proposed as a tertiary endpoint. […] Patients were to complete the AAS using the e-diary. The e-diary was to be used once daily on the same time of each day recording of participant's answers to the angioedema activity score over 7 days (AAS7) questionnaire.

## CC(C)(C=C(C#N)C(=O)N1CCC[C@@H](n2nc(-c3ccc(Oc4ccccc4)cc3F)c3c(N)ncnc32)C1)N1CCN(C2COC2)CC1 [rilzabrutinib, (R)-2-[3-[4-amino-3-(2-fluoro-4-phenoxy-phenyl)pyrazolo[3,4-d]pyrimidin-1-yl]piperidine-1-carbonyl]-4-methyl-4-[4-(oxetan-3-yl)piperazin-1-yl]pent-2-enenitrile]
400 mg BID, Week 10
  AAS7, Median: 0.00
  AAS7 Change from baseline, Mean (SD): −29.84 (25.74)
  AAS7 Change from baseline, Median: −24.00
  AAS7 Percent change from baseline, Mean (SD): −45.78 (130.13) %
  AAS7 Percent change from baseline, Median: −100.00%
400 mg BID, Week 11
  AAS7, Median: 0.00
  AAS7 Change from baseline, Mean (SD): −35.05 (24.68)
  AAS7 Change from baseline, Median: −29.17
  AAS7 Percent change from baseline, Mean (SD): −73.13 (48.67) %
  AAS7 Percent change from baseline, Median: −100.00%
400 mg BID, Week 12
  AAS7, Median: 0.00
  AAS7 Change from baseline, Mean (SD): −35.73 (26.59)
  AAS7 Change from baseline, Median: −37.00
  AAS7 Percent change from baseline, Mean (SD): −76.62 (36.34) %
  AAS7 Percent change from baseline, Median: −100.00%
400 mg QPM, End of Study
  AAS7, Mean (SD): 17.46 (29.82)
  AAS7, Median: 4.00
  AAS7 Change from baseline, Mean (SD): −4.04 (35.07)
  AAS7 Change from baseline, Median: −8.50
  AAS7 Percent change from baseline, Mean (SD): −14.64 (160.23) %
  AAS7 Percent change from baseline, Median: −92.00%
400 mg QPM, Week 1
  AAS7, Median: 39.00
  AAS7 Change from baseline, Mean (SD): −18.63 (22.01)
  AAS7 Change from baseline, Median: −19.00
  AAS7 Percent change from baseline, Mean (SD): −30.81 (44.93) %
  AAS7 Percent change from baseline, Median: −35.35%
400 mg QPM, Week 2
  AAS7, Median: 31.50
  AAS7 Change from baseline, Mean (SD): −20.23 (24.12)
  AAS7 Change from baseline, Median: −11.00
  AAS7 Percent change from baseline, Mean (SD): −36.22 (43.96) %
  AAS7 Percent change from baseline, Median: −31.31%
400 mg QPM, Week 3
  AAS7, Median: 34.00
  AAS7 Change from baseline, Mean (SD): −20.88 (26.24)
  AAS7 Change from baseline, Median: −13.00
  AAS7 Percent change from baseline, Mean (SD): −29.46 (63.83) %
  AAS7 Percent change from baseline, Median: −26.00%
400 mg QPM, Week 4
  AAS7, Median: 35.00
  AAS7 Change from baseline, Mean (SD): −23.93 (24.26)
  AAS7 Change from baseline, Median: −17.00
  AAS7 Percent change from baseline, Mean (SD): −46.35 (39.61) %
  AAS7 Percent change from baseline, Median: −46.27%
400 mg QPM, Week 5
  AAS7, Median: 23.50
  AAS7 Change from baseline, Mean (SD): −29.64 (28.55)
  AAS7 Change from baseline, Median: −17.00
  AAS7 Percent change from baseline, Mean (SD): −55.69 (41.16) %
  AAS7 Percent change from baseline, Median: −59.46%
400 mg QPM, Week 6
  AAS7, Median: 24.38
  AAS7 Change from baseline, Mean (SD): −28.36 (28.62)
  AAS7 Change from baseline, Median: −23.63
  AAS7 Percent change from baseline, Mean (SD): −47.92 (45.31) %
  AAS7 Percent change from baseline, Median: −55.14%
400 mg QPM, Week 7
  AAS7, Median: 30.00
  AAS7 Change from baseline, Mean (SD): −26.95 (30.21)
  AAS7 Change from baseline, Median: −28.00
  AAS7 Percent change from baseline, Mean (SD): −33.18 (69.78) %
  AAS7 Percent change from baseline, Median: −50.00%
400 mg QPM, Week 8
  AAS7, Median: 18.00
  AAS7 Change from baseline, Mean (SD): −29.80 (30.38)
  AAS7 Change from baseline, Median: −28.00
  AAS7 Percent change from baseline, Mean (SD): −49.05 (70.23) %
  AAS7 Percent change from baseline, Median: −66.00%
400 mg QPM, Week 9
  AAS7, Median: 26.30
  AAS7 Change from baseline, Mean (SD): −28.66 (27.25)
  AAS7 Change from baseline, Median: −29.00
  AAS7 Percent change from baseline, Mean (SD): −46.39 (66.49) %
  AAS7 Percent change from baseline, Median: −56.26%
400 mg QPM, Week 10
  AAS7, Median: 28.00
  AAS7 Change from baseline, Mean (SD): −28.93 (28.14)
  AAS7 Change from baseline, Median: −28.92
  AAS7 Percent change from baseline, Mean (SD): −46.90 (68.16) %
  AAS7 Percent change from baseline, Median: −50.17%
400 mg QPM, Week 11
  AAS7, Median: 30.10
  AAS7 Change from baseline, Mean (SD): −29.18 (28.09)
  AAS7 Change from baseline, Median: −32.40
  AAS7 Percent change from baseline, Mean (SD): −47.96 (69.01) %
  AAS7 Percent change from baseline, Median: −52.90%
400 mg QPM, Week 12
  AAS7, Median: 26.83
  AAS7 Change from baseline, Mean (SD): −29.03 (28.74)
  AAS7 Change from baseline, Median: −28.00
  AAS7 Percent change from baseline, Mean (SD): −48.34 (71.54) %
  AAS7 Percent change from baseline, Median: −59.34%
400 mg TID, End of Study
  AAS7, Mean (SD): 26.75 (33.68)
  AAS7, Median: 16.00
  AAS7 Change from baseline, Mean (SD): −21.25 (14.29)
  AAS7 Change from baseline, Median: −27.00
  AAS7 Percent change from baseline, Mean (SD): −58.11 (43.26) %
  AAS7 Percent change from baseline, Median: −66.21%
400 mg TID, Week 1
  AAS7, Median: 9.00
  AAS7 Change from baseline, Mean (SD): −28.96 (27.34)
  AAS7 Change from baseline, Median: −26.00
  AAS7 Percent change from baseline, Mean (SD): −56.39 (51.49) %
  AAS7 Percent change from baseline, Median: −89.41%
400 mg TID, Week 2
  AAS7, Median: 9.33
  AAS7 Change from baseline, Mean (SD): −30.89 (28.32)
  AAS7 Change from baseline, Median: −27.00
  AAS7 Percent change from baseline, Mean (SD): −58.84 (53.09) %
  AAS7 Percent change from baseline, Median: −81.97%
400 mg TID, Week 3
  AAS7, Median: 0.00
  AAS7 Change from baseline, Mean (SD): −33.83 (29.99)
  AAS7 Change from baseline, Median: −27.00
  AAS7 Percent change from baseline, Mean (SD): −69.93 (48.65) %
  AAS7 Percent change from baseline, Median: −100.00%
400 mg TID, Week 4
  AAS7, Median: 5.00
  AAS7 Change from baseline, Mean (SD): −36.18 (24.55)
  AAS7 Change from baseline, Median: −27.00
  AAS7 Percent change from baseline, Mean (SD): −76.56 (30.09) %
  AAS7 Percent change from baseline, Median: −93.33%
400 mg TID, Week 5
  AAS7, Median: 6.00
  AAS7 Change from baseline, Mean (SD): −37.08 (26.17)
  AAS7 Change from baseline, Median: −30.00
  AAS7 Percent change from baseline, Mean (SD): −73.55 (35.00) %
  AAS7 Percent change from baseline, Median: −88.24%
400 mg TID, Week 6
  AAS7, Median: 0.00
  AAS7 Change from baseline, Mean (SD): −32.35 (30.51)
  AAS7 Change from baseline, Median: −27.00
  AAS7 Percent change from baseline, Mean (SD): −63.91 (58.28) %
  AAS7 Percent change from baseline, Median: −100.00%
400 mg TID, Week 7
  AAS7, Median: 2.50
  AAS7 Change from baseline, Mean (SD): −32.23 (26.57)
